Data as given in the supplement of paper PMC10307832.

What was measured:
Test in all cases: relative viability (nuclei count vs DMSO), 5 days (fraction); higher = more cells survive
[1] = compound: CC(C)C[C@H](NC(=O)[C@H](CCc1ccccc1)NC(=O)CN1CCOCC1)C(=O)N[C@@H](Cc1ccccc1)C(=O)N[C@@H](CC(C)C)C(=O)[C@@]1(C)CO1 [Carfilzomib] + NC(=O)Nc1cc(-c2cccc(F)c2)sc1C(=O)N[C@H]1CCCNC1 [AZD7762] (partner 0.2 µM)
Procedure, shortened: (§1)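 Medians of duplicate plates are given as relative viability. That measure is the nuclei count in treated wells divided by the count in vehicle wells. Counts were taken on 4× images of lung cancer cell lines in 1536-well plates, 5 days after pin-tool dosing the day after seeding with one drug alone or a fixed anchor-drug dose plus five library-drug doses (not always all listed) in √10 steps.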

[2] = compound: CC(C)C[C@H](NC(=O)[C@H](CCc1ccccc1)NC(=O)CN1CCOCC1)C(=O)N[C@@H](Cc1ccccc1)C(=O)N[C@@H](CC(C)C)C(=O)[C@@]1(C)CO1 [Carfilzomib] + O=C(CCCCCCC(=O)Nc1ccccc1)NO [Vorinostat] (partner 1 µM)
Procedure, shortened: as §1

[3] = compound: C[C@@H](Oc1cc(-c2cnn(C3CCNCC3)c2)cnc1N)c1c(Cl)ccc(F)c1Cl [Crizotinib] + CC(=O)c1c(C)c2cnc(Nc3ccc(N4CCNCC4)cn3)nc2n(C2CCCC2)c1=O [Palbociclib] (partner 0.5 µM)
Procedure, shortened: as §1

[4] = compound: C[C@@H](Oc1cc(-c2cnn(C3CCNCC3)c2)cnc1N)c1c(Cl)ccc(F)c1Cl [Crizotinib] + C[C@]1(O)C[C@@H](c2nc(-c3ccc4ccc(-c5ccccc5)nc4c3)c3c(N)nccn32)C1 [Linsitinib] (partner 1 µM)
Procedure, shortened: as §1

[5] = compound: C[C@@H](Oc1cc(-c2cnn(C3CCNCC3)c2)cnc1N)c1c(Cl)ccc(F)c1Cl [Crizotinib] + N=C(N)NC(=N)NCCc1ccccc1 [Phenformin] (partner 250 µM)
Procedure, shortened: as §1

NCI-H1793
relative viability ([1]; first compound 0.001 µM): 0.481
relative viability ([1]; first compound 0.003162 µM): 0.883
relative viability ([1]; first compound 0.01 µM): 0.599
relative viability ([1]; first compound 0.03162 µM): 0.757
relative viability ([1]; first compound 0.1 µM): 0.506
relative viability ([2]; first compound 0.001 µM): 0.605
relative viability ([2]; first compound 0.003162 µM): 1
relative viability ([2]; first compound 0.01 µM): 0.7
relative viability ([2]; first compound 0.03162 µM): 0.396
relative viability ([2]; first compound 0.1 µM): 0.107
relative viability ([3]; first compound 0.03162 µM): 0.339
relative viability ([3]; first compound 0.1 µM): 0.311
relative viability ([3]; first compound 1 µM): 0.277
relative viability ([4]; first compound 0.01 µM): 1.01
relative viability ([4]; first compound 0.03162 µM): 0.922
relative viability ([4]; first compound 0.1 µM): 0.837
relative viability ([4]; first compound 1 µM): 0.87
relative viability ([5]; first compound 0.03162 µM): 0.408
relative viability ([5]; first compound 0.1 µM): 0.343
relative viability ([5]; first compound 1 µM): 0.388
